Experimental data taken from PMC12670405, “Second-Generation AURKA-Targeting PROTACs: Structural Optimization toward in Vivo Degradation in Neuroblastoma” (Journal of Medicinal Chemistry, 2025).

Legend:
Assay in all cases: KINOMEscan scanMAX
Format in all cases: binding
Details in all cases: read-out: Percent Control
ADCK3 = molecular target: T1, ADCK3 (Homo sapiens, UniProt Q8NI60)
T1 construct: purchased Eurofins Discovery (DiscoverX KINOMEscan scanMAX)
Method: (§1) The kinome-wide binding assay was performed by Eurofins Discovery using the scanMAX screening platform. More information can be found on the Eurofins Discovery Web site.

CAMKK1 = molecular target: T2, CAMKK1 (Homo sapiens, UniProt Q8N5S9)
T2 construct: purchased Eurofins Discovery (DiscoverX KINOMEscan scanMAX)
Method: as §1

CDK8 = molecular target: T3, CDK8 (Homo sapiens, UniProt P49336)
T3 construct: purchased Eurofins Discovery (DiscoverX KINOMEscan scanMAX)
T3 sequence (P49336 whole entry): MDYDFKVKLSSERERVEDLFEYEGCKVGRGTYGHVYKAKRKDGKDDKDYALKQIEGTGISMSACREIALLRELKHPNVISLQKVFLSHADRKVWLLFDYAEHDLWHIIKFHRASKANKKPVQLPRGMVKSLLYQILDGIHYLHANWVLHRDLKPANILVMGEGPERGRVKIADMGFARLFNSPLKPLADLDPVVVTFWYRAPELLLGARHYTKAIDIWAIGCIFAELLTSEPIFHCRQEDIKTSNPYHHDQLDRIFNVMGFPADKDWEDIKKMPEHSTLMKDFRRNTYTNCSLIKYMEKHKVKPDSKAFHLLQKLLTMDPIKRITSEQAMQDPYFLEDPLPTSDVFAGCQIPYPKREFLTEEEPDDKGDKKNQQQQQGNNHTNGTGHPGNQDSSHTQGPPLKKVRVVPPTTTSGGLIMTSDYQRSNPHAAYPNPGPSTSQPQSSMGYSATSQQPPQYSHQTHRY
Method: as §1

CSNK1A1L = molecular target: T4, CSNK1A1L (Homo sapiens, UniProt Q8N752)
T4 construct: purchased Eurofins Discovery (DiscoverX KINOMEscan scanMAX)
T4 sequence (Q8N752 whole entry): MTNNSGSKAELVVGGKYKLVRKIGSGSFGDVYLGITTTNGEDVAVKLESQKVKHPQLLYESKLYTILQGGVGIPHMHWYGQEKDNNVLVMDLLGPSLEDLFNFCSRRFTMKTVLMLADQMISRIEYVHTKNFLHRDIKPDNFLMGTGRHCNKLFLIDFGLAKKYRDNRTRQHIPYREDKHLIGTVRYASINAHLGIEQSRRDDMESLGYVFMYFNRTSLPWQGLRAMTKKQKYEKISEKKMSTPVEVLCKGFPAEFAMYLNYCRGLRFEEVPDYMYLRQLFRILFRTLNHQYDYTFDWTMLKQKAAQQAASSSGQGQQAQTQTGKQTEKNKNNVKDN
Method: as §1

CSNK1D = molecular target: T5, CSNK1D (Homo sapiens, UniProt P48730)
T5 construct: purchased Eurofins Discovery (DiscoverX KINOMEscan scanMAX)
Method: as §1

DDR1 = molecular target: T6, DDR1 (Homo sapiens, UniProt Q08345)
T6 construct: purchased Eurofins Discovery (DiscoverX KINOMEscan scanMAX)
Method: as §1

DMPK = molecular target: T7, DMPK (Homo sapiens, UniProt Q09013)
T7 construct: purchased Eurofins Discovery (DiscoverX KINOMEscan scanMAX)
Method: as §1

EPHA3 = molecular target: T8, EPHA3 (Homo sapiens, UniProt P29320)
T8 construct: purchased Eurofins Discovery (DiscoverX KINOMEscan scanMAX)
Method: as §1

EPHB6 = molecular target: T9, EPHB6 (Homo sapiens, UniProt O15197)
T9 construct: purchased Eurofins Discovery (DiscoverX KINOMEscan scanMAX)
Method: as §1

GSK3B = molecular target: T10, GSK3B (Homo sapiens, UniProt P49841)
T10 construct: purchased Eurofins Discovery (DiscoverX KINOMEscan scanMAX)
Method: as §1

IKK-beta = molecular target: T11, IKK-beta (Homo sapiens, UniProt O14920)
T11 construct: purchased Eurofins Discovery (DiscoverX KINOMEscan scanMAX)
Method: as §1

LRRK2 = molecular target: T12, LRRK2 (Homo sapiens, UniProt Q5S007)
T12 construct: purchased Eurofins Discovery (DiscoverX KINOMEscan scanMAX)
Method: as §1

MAPKAPK2 = molecular target: T13, MAPKAPK2 (Homo sapiens, UniProt P49137)
T13 construct: purchased Eurofins Discovery (DiscoverX KINOMEscan scanMAX)
Method: as §1

MINK = molecular target: T14, MINK (Homo sapiens, UniProt Q8N4C8)
T14 construct: purchased Eurofins Discovery (DiscoverX KINOMEscan scanMAX)
T14 sequence (Q8N4C8 whole entry): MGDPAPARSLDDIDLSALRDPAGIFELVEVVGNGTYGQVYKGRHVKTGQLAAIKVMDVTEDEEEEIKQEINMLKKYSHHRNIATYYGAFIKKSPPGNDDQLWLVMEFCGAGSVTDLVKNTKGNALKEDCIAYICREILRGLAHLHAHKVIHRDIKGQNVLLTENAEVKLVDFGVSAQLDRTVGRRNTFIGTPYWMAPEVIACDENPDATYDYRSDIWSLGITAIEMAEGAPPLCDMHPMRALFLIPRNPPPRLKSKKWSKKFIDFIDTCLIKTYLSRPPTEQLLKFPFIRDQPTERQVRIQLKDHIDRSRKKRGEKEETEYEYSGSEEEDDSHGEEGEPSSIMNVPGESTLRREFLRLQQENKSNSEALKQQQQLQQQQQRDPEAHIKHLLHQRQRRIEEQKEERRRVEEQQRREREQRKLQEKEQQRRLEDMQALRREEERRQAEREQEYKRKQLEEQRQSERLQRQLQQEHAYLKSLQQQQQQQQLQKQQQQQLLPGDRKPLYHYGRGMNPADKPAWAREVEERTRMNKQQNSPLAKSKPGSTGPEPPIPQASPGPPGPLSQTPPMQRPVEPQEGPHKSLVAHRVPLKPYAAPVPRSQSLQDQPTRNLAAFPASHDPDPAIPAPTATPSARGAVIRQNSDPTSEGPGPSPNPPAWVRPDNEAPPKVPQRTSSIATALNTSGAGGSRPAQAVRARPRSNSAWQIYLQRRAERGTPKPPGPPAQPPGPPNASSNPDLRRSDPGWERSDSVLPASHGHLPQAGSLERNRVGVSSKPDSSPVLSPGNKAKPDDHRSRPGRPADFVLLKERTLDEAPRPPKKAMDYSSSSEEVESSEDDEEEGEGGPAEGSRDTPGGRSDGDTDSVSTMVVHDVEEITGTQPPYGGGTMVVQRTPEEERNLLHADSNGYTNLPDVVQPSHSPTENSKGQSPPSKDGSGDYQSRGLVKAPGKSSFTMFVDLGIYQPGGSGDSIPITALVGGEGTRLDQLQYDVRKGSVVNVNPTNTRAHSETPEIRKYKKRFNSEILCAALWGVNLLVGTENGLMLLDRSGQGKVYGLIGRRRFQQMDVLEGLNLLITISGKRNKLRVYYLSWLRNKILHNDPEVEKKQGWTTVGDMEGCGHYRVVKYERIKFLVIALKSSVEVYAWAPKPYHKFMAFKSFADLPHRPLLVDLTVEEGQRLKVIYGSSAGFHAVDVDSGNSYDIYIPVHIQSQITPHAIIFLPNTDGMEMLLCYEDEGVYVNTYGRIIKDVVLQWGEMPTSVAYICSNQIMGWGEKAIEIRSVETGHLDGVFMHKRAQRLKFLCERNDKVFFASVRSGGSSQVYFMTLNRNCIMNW
Method: as §1

NEK9 = molecular target: T15, NEK9 (Homo sapiens, UniProt Q8TD19)
T15 construct: purchased Eurofins Discovery (DiscoverX KINOMEscan scanMAX)
Method: as §1

PAK4 = molecular target: T16, PAK4 (Homo sapiens, UniProt O96013)
T16 construct: purchased Eurofins Discovery (DiscoverX KINOMEscan scanMAX)
Method: as §1

PAK6 = molecular target: T17, PAK6 (Homo sapiens, UniProt Q9NQU5)
T17 construct: purchased Eurofins Discovery (DiscoverX KINOMEscan scanMAX)
T17 sequence (Q9NQU5 whole entry): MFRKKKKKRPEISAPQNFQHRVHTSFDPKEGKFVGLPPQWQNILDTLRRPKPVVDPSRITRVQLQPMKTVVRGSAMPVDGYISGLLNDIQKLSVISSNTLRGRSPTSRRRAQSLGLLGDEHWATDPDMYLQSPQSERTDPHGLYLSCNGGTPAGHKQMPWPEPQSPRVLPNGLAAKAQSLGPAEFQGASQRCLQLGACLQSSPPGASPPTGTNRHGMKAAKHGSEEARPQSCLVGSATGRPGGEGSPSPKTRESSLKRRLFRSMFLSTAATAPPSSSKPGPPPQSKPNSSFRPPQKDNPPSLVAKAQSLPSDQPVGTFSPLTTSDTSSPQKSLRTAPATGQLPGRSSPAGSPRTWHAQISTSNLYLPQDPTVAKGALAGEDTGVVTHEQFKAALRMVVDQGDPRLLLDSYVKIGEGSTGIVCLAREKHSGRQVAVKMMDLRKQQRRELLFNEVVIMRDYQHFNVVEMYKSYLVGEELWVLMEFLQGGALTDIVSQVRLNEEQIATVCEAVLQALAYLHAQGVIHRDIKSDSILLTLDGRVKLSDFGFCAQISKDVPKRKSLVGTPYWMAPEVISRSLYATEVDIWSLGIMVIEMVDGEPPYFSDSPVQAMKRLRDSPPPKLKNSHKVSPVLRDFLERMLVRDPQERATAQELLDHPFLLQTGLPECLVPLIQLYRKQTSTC
Method: as §1

PKMYT1 = molecular target: T18, PKMYT1 (Homo sapiens, UniProt Q99640)
T18 construct: purchased Eurofins Discovery (DiscoverX KINOMEscan scanMAX)
Method: as §1

PKNB(M.tuberculosis) = molecular target: T19, PKNB(M.tuberculosis) (Mycobacterium tuberculosis, UniProt P9WI81)
T19 construct: purchased Eurofins Discovery (DiscoverX KINOMEscan scanMAX)
Method: as §1

PRKCH = molecular target: T20, PRKCH (Homo sapiens, UniProt P24723)
T20 construct: purchased Eurofins Discovery (DiscoverX KINOMEscan scanMAX)
Method: as §1

PRKX = molecular target: T21, PRKX (Homo sapiens, UniProt P51817)
T21 construct: purchased Eurofins Discovery (DiscoverX KINOMEscan scanMAX)
Method: as §1

QSK = molecular target: T22, QSK (Homo sapiens, UniProt Q9Y2K2)
T22 construct: purchased Eurofins Discovery (DiscoverX KINOMEscan scanMAX)
Method: as §1

RET(M918T) = molecular target: T23, RET(M918T) (Homo sapiens, UniProt P07949, M918T)
T23 construct: purchased Eurofins Discovery (DiscoverX KINOMEscan scanMAX)
Method: as §1

ROCK1 = molecular target: T24, ROCK1 (Homo sapiens, UniProt Q13464)
T24 construct: purchased Eurofins Discovery (DiscoverX KINOMEscan scanMAX)
Method: as §1

[1] = molecular target: T25, RSK1(Kin.Dom.1-N-terminal) (Homo sapiens, UniProt Q15418)
T25 construct: RSK1(Kin.Dom.1-N-terminal); purchased Eurofins Discovery (DiscoverX KINOMEscan scanMAX)
Method: as §1

SRC = molecular target: T26, SRC (Homo sapiens, UniProt P12931)
T26 construct: purchased Eurofins Discovery (DiscoverX KINOMEscan scanMAX)
T26 sequence (P12931 whole entry): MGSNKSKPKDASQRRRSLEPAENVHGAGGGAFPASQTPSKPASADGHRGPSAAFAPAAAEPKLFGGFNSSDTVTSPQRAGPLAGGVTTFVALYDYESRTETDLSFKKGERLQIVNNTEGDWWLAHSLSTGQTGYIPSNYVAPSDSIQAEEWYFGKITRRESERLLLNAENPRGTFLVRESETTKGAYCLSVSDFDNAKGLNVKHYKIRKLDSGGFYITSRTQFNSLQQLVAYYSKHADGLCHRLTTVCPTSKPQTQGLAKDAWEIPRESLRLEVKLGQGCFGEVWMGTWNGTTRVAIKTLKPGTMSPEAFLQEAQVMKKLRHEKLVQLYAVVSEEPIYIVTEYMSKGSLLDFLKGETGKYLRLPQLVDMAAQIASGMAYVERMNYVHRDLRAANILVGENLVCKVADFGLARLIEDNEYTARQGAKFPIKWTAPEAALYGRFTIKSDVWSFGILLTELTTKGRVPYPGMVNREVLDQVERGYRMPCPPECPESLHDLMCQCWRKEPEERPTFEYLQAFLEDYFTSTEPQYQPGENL
Method: as §1

SRPK3 = molecular target: T27, SRPK3 (Homo sapiens, UniProt Q9UPE1)
T27 construct: purchased Eurofins Discovery (DiscoverX KINOMEscan scanMAX)
Method: as §1

STK33 = molecular target: T28, STK33 (Homo sapiens, UniProt Q9BYT3)
T28 construct: purchased Eurofins Discovery (DiscoverX KINOMEscan scanMAX)
Method: as §1

TAOK2 = molecular target: T29, TAOK2 (Homo sapiens, UniProt Q9UL54)
T29 construct: purchased Eurofins Discovery (DiscoverX KINOMEscan scanMAX)
Method: as §1

TIE2 = molecular target: T30, TIE2 (Homo sapiens, UniProt Q02763)
T30 construct: purchased Eurofins Discovery (DiscoverX KINOMEscan scanMAX)
Method: as §1

TNNI3K = molecular target: T31, TNNI3K (Homo sapiens, UniProt Q59H18)
T31 construct: purchased Eurofins Discovery (DiscoverX KINOMEscan scanMAX)
T31 sequence (Q59H18 whole entry): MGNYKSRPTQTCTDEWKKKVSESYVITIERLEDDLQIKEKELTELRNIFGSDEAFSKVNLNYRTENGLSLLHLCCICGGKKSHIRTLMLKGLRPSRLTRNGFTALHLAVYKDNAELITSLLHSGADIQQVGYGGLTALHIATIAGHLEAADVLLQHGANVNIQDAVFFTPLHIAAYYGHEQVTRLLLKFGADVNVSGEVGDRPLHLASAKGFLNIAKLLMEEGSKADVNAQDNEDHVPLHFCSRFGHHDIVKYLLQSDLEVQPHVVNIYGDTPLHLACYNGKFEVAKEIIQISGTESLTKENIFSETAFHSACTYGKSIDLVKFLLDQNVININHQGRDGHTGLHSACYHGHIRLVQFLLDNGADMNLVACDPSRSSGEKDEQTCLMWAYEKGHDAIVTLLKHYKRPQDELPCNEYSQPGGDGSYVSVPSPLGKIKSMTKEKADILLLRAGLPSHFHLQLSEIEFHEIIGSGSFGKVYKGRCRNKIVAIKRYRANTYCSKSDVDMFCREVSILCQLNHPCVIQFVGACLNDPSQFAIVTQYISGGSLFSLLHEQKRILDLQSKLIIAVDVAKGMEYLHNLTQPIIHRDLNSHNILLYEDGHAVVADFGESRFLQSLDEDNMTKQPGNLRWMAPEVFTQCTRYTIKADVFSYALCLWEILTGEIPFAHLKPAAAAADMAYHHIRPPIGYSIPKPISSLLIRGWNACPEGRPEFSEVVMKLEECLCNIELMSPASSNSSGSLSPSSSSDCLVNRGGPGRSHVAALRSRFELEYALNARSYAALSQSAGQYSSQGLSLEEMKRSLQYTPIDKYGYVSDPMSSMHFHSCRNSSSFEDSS
Method: as §1

TYRO3 = molecular target: T32, TYRO3 (Homo sapiens, UniProt Q06418)
T32 construct: purchased Eurofins Discovery (DiscoverX KINOMEscan scanMAX)
T32 sequence (Q06418 41-890): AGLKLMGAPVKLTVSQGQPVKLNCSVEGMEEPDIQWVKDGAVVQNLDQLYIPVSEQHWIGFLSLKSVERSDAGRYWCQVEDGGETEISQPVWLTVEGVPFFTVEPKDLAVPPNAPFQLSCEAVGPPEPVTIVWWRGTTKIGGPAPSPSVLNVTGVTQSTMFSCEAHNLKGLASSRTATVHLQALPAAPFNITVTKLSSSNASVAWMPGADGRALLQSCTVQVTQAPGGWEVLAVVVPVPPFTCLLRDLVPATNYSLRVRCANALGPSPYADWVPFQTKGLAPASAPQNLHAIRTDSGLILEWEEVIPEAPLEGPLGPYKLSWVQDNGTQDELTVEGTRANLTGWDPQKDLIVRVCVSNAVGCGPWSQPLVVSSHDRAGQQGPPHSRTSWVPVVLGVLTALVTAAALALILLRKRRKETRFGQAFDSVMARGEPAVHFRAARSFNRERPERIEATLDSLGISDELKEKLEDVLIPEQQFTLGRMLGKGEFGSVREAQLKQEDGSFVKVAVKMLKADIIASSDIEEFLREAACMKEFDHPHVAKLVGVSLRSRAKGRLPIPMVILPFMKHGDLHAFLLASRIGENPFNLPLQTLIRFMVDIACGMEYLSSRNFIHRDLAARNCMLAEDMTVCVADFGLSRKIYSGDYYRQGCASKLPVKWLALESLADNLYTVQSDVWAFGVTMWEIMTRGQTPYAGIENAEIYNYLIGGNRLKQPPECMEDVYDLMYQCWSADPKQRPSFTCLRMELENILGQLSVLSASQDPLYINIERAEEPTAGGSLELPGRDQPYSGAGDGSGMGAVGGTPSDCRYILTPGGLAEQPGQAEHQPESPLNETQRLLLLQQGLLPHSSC
Method: as §1

ULK3 = molecular target: T33, ULK3 (Homo sapiens, UniProt Q6PHR2)
T33 construct: purchased Eurofins Discovery (DiscoverX KINOMEscan scanMAX)
Method: as §1

VPS34 = molecular target: T34, VPS34 (Homo sapiens, UniProt Q8NEB9)
T34 construct: purchased Eurofins Discovery (DiscoverX KINOMEscan scanMAX)
Method: as §1

Cc1cc(Nc2ccc(F)c(CC3(C(=O)N4CCC(F)(CN5CCN(c6ccc(N7CCC(=O)NC7=O)cn6)CC5)CC4)CCN(Cc4cccc(Cl)c4F)CC3)n2)n[nH]1 [SK5527]
remaining binding at 0.1 µM (ADCK3; 100 nM): 100% | remaining binding at 1 µM (ADCK3; 1000 nM): 99% | remaining binding at 0.1 µM (CAMKK1; 100 nM): 100% | remaining binding at 1 µM (CAMKK1; 1000 nM): 100% | remaining binding at 0.1 µM (CDK8; 100 nM): 88% | remaining binding at 1 µM (CDK8; 1000 nM): 89% | remaining binding at 0.1 µM (CSNK1A1L; 100 nM): 91% | remaining binding at 1 µM (CSNK1A1L; 1000 nM): 87% | remaining binding at 0.1 µM (CSNK1D; 100 nM): 98% | remaining binding at 1 µM (CSNK1D; 1000 nM): 91% | remaining binding at 0.1 µM (DDR1; 100 nM): 98% | remaining binding at 1 µM (DDR1; 1000 nM): 93% | remaining binding at 0.1 µM (DMPK; 100 nM): 88% | remaining binding at 1 µM (DMPK; 1000 nM): 90% | remaining binding at 0.1 µM (EPHA3; 100 nM): 99% | remaining binding at 1 µM (EPHA3; 1000 nM): 71% | remaining binding at 0.1 µM (EPHB6; 100 nM): 93% | remaining binding at 1 µM (EPHB6; 1000 nM): 85% | remaining binding at 0.1 µM (GSK3B; 100 nM): 82% | remaining binding at 1 µM (GSK3B; 1000 nM): 78% | remaining binding at 0.1 µM (IKK-beta; 100 nM): 100% | remaining binding at 1 µM (IKK-beta; 1000 nM): 73% | remaining binding at 0.1 µM (LRRK2; 100 nM): 100% | remaining binding at 1 µM (LRRK2; 1000 nM): 94% | remaining binding at 0.1 µM (MAPKAPK2; 100 nM): 84% | remaining binding at 1 µM (MAPKAPK2; 1000 nM): 100% | remaining binding at 0.1 µM (MINK; 100 nM): 98% | remaining binding at 1 µM (MINK; 1000 nM): 86% | remaining binding at 0.1 µM (NEK9; 100 nM): 78% | remaining binding at 1 µM (NEK9; 1000 nM): 81% | remaining binding at 0.1 µM (PAK4; 100 nM): 100% | remaining binding at 1 µM (PAK4; 1000 nM): 81% | remaining binding at 0.1 µM (PAK6; 100 nM): 100% | remaining binding at 1 µM (PAK6; 1000 nM): 100% | remaining binding at 0.1 µM (PKMYT1; 100 nM): 81% | remaining binding at 1 µM (PKMYT1; 1000 nM): 58% | remaining binding at 0.1 µM (PKNB(M.tuberculosis); 100 nM): 93% | remaining binding at 1 µM (PKNB(M.tuberculosis); 1000 nM): 94% | remaining binding at 0.1 µM (PRKCH; 100 nM): 96% | remaining binding at 1 µM (PRKCH; 1000 nM): 100% | remaining binding at 0.1 µM (PRKX; 100 nM): 79% | remaining binding at 1 µM (PRKX; 1000 nM): 96% | remaining binding at 0.1 µM (QSK; 100 nM): 89% | remaining binding at 1 µM (QSK; 1000 nM): 90% | remaining binding at 0.1 µM (RET(M918T); 100 nM): 95% | remaining binding at 1 µM (RET(M918T); 1000 nM): 38% | remaining binding at 0.1 µM (ROCK1; 100 nM): 96% | remaining binding at 1 µM (ROCK1; 1000 nM): 81% | remaining binding at 0.1 µM ([1]; 100 nM): 100% | remaining binding at 1 µM ([1]; 1000 nM): 100% | remaining binding at 0.1 µM (SRC; 100 nM): 66% | remaining binding at 1 µM (SRC; 1000 nM): 33% | remaining binding at 0.1 µM (SRPK3; 100 nM): 100% | remaining binding at 1 µM (SRPK3; 1000 nM): 97% | remaining binding at 0.1 µM (STK33; 100 nM): 100% | remaining binding at 1 µM (STK33; 1000 nM): 97% | remaining binding at 0.1 µM (TAOK2; 100 nM): 100% | remaining binding at 1 µM (TAOK2; 1000 nM): 100% | remaining binding at 0.1 µM (TIE2; 100 nM): 100% | remaining binding at 1 µM (TIE2; 1000 nM): 100% | remaining binding at 0.1 µM (TNNI3K; 100 nM): 73% | remaining binding at 1 µM (TNNI3K; 1000 nM): 70% | remaining binding at 0.1 µM (TYRO3; 100 nM): 80% | remaining binding at 1 µM (TYRO3; 1000 nM): 89% | remaining binding at 0.1 µM (ULK3; 100 nM): 85% | remaining binding at 1 µM (ULK3; 1000 nM): 86% | remaining binding at 0.1 µM (VPS34; 100 nM): 92% | remaining binding at 1 µM (VPS34; 1000 nM): 39%
